Each structure is given as a SMILES string.

Assay [1] in a line: Treatment of a person suffering from autoimmune-mediated limbic encephalitis (single-patient case, anti-NMDAR encephalitis).
For assay [2] the following is noted: multiple sclerosis patients; cited from earlier work.

For `O=C(CCCN1CCC(O)(c2ccc(Cl)cc2)CC1)c1ccc(F)cc1` [haloperidol], the “psychiatric condition under standard antipsychotic treatment” value in assay [1] (during entire stay in the psychiatric ward, before cladribine) is recorded as “without any improvement”.

For `Nc1nc(Cl)nc2c1ncn2[C@H]1C[C@H](O)[C@@H](CO)O1` [cladribine, 2-chloro-2′-deoxyadenosine], the “period of beneficial effects on the disease without need for frequent retreatment” value in assay [1] (after a relatively short period of treatment) is recorded as “over 10 months to two years”. Besides, the “disability reported by patient” value in assay [1] (after recovery following cladribine, able to perform all usual activities) is listed as “no significant disability”. Further, in assay [1] (follow up of 2 years, 5 more maintenance courses (20 mg over 2 consecutive days) with 2 months intervals), the recurrence of disease result is on record as “did not show any recurrence of disease”. The neurological condition result in assay [1] (over subsequent 4 weeks after the first 3 weeks following cladribine) is reported as “returned to normal neurological condition”. The “onset of effect on severe symptoms” value in assay [1] (patient with refractory autoimmune encephalitis) was “rapid effect”. Besides, in assay [1] (remaining after recovery following cladribine), the neurological sequel entry was “parasomnia and complete loss of memory covering the entire hospitalization period”. Further, the “time at which therapeutic effect on MS is evident” value in assay [2] is “three months after treatment”.

For the compound `CCCC(CCC)C(=O)[O-].[Na+]` [sodium valproate], in assay [1] (before cladribine), the “response of generalized tonic-clonic repetitive seizures to anticonvulsants” value (“response” below) is recorded as “did not respond”.

On to `O=C1NC(=O)C(c2ccccc2)(c2ccccc2)N1` [phenytoin], for which the “response” value in assay [1] (before cladribine) is recorded as “did not respond”.

As to `NC(=O)N1c2ccccc2C=Cc2ccccc21` [carbamazepine], the “response” value in assay [1] (before cladribine) is “did not respond”.

Turning to `O=C1CN=C(c2ccccc2Cl)c2cc([N+](=O)[O-])ccc2N1` [clonazepam], the “response” value in assay [1] (before cladribine) was “did not respond”.

(Values after patent publication US20240041911A1, “USE OF CLADRIBINE FOR TREATING IMMUNE BRAIN DISEASE” (CHORD THERAPEUTICS SA, priority 2020, published 2024).)
